A word on the IC50: it is the point on the concentration scale where inhibition reaches its midpoint. The term IC90 denotes the concentration needed for an effect of 90%.

This note sets out measurements from ChEMBL document CHEMBL4483862, “Open-source discovery of chemical leads for next-generation chemoprotective antimalarials” (2018).

The experiment concerns Plasmodium berghei. In words: Luciferase/luciferin-expressing antifolate-resistant parasites were used to infect a culture of HepG2 cells that were pre-incubated with compounds. Infected hepatocytes emit light due to the luciferase reaction. Assay results are presented as the percent inhibition of light emission compared to control. […]. It counts as functional. To be noted: sporozoite; for IC90: read-out: LUCIFERASE INFECTION ASSAY - IC90.

[1] abbreviates: read-out: LUCIFERASE INFECTION ASSAY - IC50.

For `CCOc1cccc(-c2cn3c(-c4ccc(OC)cc4)cnc3cn2)c1`, the IC90 was found to be 0.375 µM. Also, the IC50 (HEPG2TOX_HILL_SLOPE 0.801, HEPG2TOX_R_SQUARED 0.8, PBLUC_HILL_SLOPE 14.9, PBLUC_R_SQUARED 0.835, read-out: LUCIFERASE INFECTION ASSAY - IC50) is 0.324 µM.

For the molecule `CCCCOc1ccc(C(=O)NCC(=O)N2CCN(C/C=C/c3ccccc3)CC2)cc1`, the IC90 came to 7.33 µM. Besides, the IC50 under setting [1] was 5.03 µM.

As for `COc1ccccc1N1C(=O)C=CC1=O`, the IC90 was more than 16.2 µM. The IC50 under setting [1] was more than 16.2 µM.

For the molecule `CCc1ccc(Cl)c(CC)c1NC(=O)CCc1c(C)c2ccc(C)cc2oc1=O`, the IC90 is more than 10 µM. For the same molecule, where the note is “HEPG2TOX_HILL_SLOPE 2.1, HEPG2TOX_R_SQUARED 0.669, read-out: LUCIFERASE INFECTION ASSAY - IC50”, the IC50 is more than 10 µM.

Regarding `Cc1cc(C)c(-c2csc(NC(=O)c3cc(-c4ccccc4)nn3-c3ccccc3)n2)c(C)c1`, the IC90 is more than 10 µM. Moreover, for the setting “FFLUC_HILL_SLOPE 15.4, FFLUC_R_SQUARED 0.775, read-out: LUCIFERASE INFECTION ASSAY - IC50”, the IC50 is more than 10 µM.

As to `CC(C)(C)c1ccc(C2Nc3ccccc3C(=O)N2C2CC2)cc1` (stereo unspecified), the IC90 was 9.91 µM. Besides, the IC50 (PBLUC_HILL_SLOPE 18.7, PBLUC_R_SQUARED 0.174, read-out: LUCIFERASE INFECTION ASSAY - IC50) was 8.81 µM.

For `CCOC(=O)c1sc(N)c(C#N)c1COC(=O)C1(c2cccc(F)c2)CCCC1`, the IC90 is 8.29 µM. Also, under “HEPG2TOX_HILL_SLOPE 2.42, HEPG2TOX_R_SQUARED 0.924, PBLUC_HILL_SLOPE 2.7, PBLUC_R_SQUARED 0.388, read-out: LUCIFERASE INFECTION ASSAY - IC50”, the IC50 turned out to be 3.67 µM.

Consider `CCc1cccc(CC)c1NC(=O)COC(=O)c1[nH]c(C)c(C(C)=O)c1C`, for which the IC90 was more than 10 µM. In addition, under setting [1], the IC50 is more than 10 µM.

As for `OCCNc1nc(-c2cccnc2)nc2scc(-c3ccccc3)c12`, the IC90 was more than 10 µM. In addition, the IC50 (PBLUC_HILL_SLOPE 15.6, PBLUC_R_SQUARED 0.267, read-out: LUCIFERASE INFECTION ASSAY - IC50) is 9.57 µM.

As for `Cc1ccc(C(=O)Nc2nc(-c3ccccn3)cs2)cc1S(=O)(=O)N1CCCCC1`, the IC90 came to 8.14 µM. The IC50 (HEPG2TOX_HILL_SLOPE 16.5, HEPG2TOX_R_SQUARED 0.73, PBLUC_HILL_SLOPE 17.5, PBLUC_R_SQUARED 0.446, read-out: LUCIFERASE INFECTION ASSAY - IC50) turned out to be 7.18 µM.

Turning to `COc1ccc(Nc2nccc3c2cc(-c2ccccc2OC)n3C)cn1`, the IC90 is 4.48 µM. In addition, the IC50 (PBLUC_HILL_SLOPE 9.12, PBLUC_R_SQUARED 0.328, read-out: LUCIFERASE INFECTION ASSAY - IC50) came out at 3.52 µM.

Consider `COc1cc(OC)c(C(=O)/C=C/c2cnc(N3CCCC3)nc2)cc1Cl`, for which the IC90 was more than 10 µM. Further, the 50% inhibitory concentration (IC50) under setting [1] is 7.4 µM.

Take `CSc1ncccc1C(=O)Nc1nc(-c2ccc3ccccc3c2)cs1`: the IC90 is more than 10 µM. Also, the IC50 (FFLUC_HILL_SLOPE 11.5, FFLUC_R_SQUARED 0.449, read-out: LUCIFERASE INFECTION ASSAY - IC50) is more than 10 µM.

Turning to `O=C1NC2(CCOc3ccccc32)C(=O)N1Cc1cc2ccccc2nc1Cl` (stereo unspecified), the IC90 was 1.37 µM. Under “HEPG2TOX_HILL_SLOPE 1.06, HEPG2TOX_R_SQUARED 0.922, PBLUC_HILL_SLOPE 24.2, PBLUC_R_SQUARED 0.349, read-out: LUCIFERASE INFECTION ASSAY - IC50”, the IC50 came out at 1.25 µM.

As for `CC(C)[C@H](NC(=O)c1ccc(C(C)(C)C)cc1)C(=O)Nc1nc2ccccc2[nH]1`, the IC90 is more than 10 µM. Moreover, the IC50 under setting [1] is more than 10 µM.

Turning to `Cc1cc(-c2cn3c(-c4ccc(CO)cc4)cnc3cn2)cc(C)c1O`, the IC90 amounted to 4.31 µM. Also, the IC50 (HEPG2TOX_HILL_SLOPE 1.62, HEPG2TOX_R_SQUARED 0.965, PBLUC_HILL_SLOPE 8.31, PBLUC_R_SQUARED 0.637, read-out: LUCIFERASE INFECTION ASSAY - IC50) came out at 3.31 µM.

As for `COc1ccc(C(OC[C@H]2O[C@@H](n3cnc4c(N)ncnc43)CC2O)(c2ccccc2)c2ccc(OC)cc2)cc1` (stereo partly specified), the 90% effect concentration (IC90) is more than 5.96 µM. In addition, the IC50 under setting [1] was more than 5.96 µM.

For `Cn1nnnc1SCC(=O)Nc1ccc(C(=O)Nc2ncccc2O)cc1`, the IC90 worked out at 6.88 µM. The IC50 (PBLUC_HILL_SLOPE 1.53, PBLUC_R_SQUARED 0.512, read-out: LUCIFERASE INFECTION ASSAY - IC50) amounted to 1.64 µM.

Regarding `CCOc1cccc2c(C)nc(Nc3nc(=O)c4ccccc4[nH]3)nc12`, the IC90 worked out at 7.27 µM. The IC50 (HEPG2TOX_HILL_SLOPE 3.19, HEPG2TOX_R_SQUARED 0.9, PBLUC_HILL_SLOPE 4.13, PBLUC_R_SQUARED 0.554, read-out: LUCIFERASE INFECTION ASSAY - IC50) amounted to 4.27 µM.

For `O=C(Nc1ccc2c[nH]nc2c1)c1cccc(Oc2ccccc2)c1`, the IC90 is more than 10 µM. Further, the IC50 under setting [1] is more than 10 µM.

As to `CC(Oc1ccc2[nH]c3ccccc3c(=O)c2c1)C(=O)NC(=O)NC12CC3CC(CC(C3)C1)C2` (stereo unspecified), the IC90 is 3.1 µM. The IC50 (PBLUC_HILL_SLOPE 24.7, PBLUC_R_SQUARED 0.64, read-out: LUCIFERASE INFECTION ASSAY - IC50) was found to be 2.84 µM.

Regarding `CC(C)c1ccc(C(Nc2ccc3nnnn3n2)c2cccs2)cc1` (stereo unspecified), the IC90 came out at 5.57 µM. Further, the IC50 (HEPG2TOX_HILL_SLOPE 2.7, HEPG2TOX_R_SQUARED 0.805, PBLUC_HILL_SLOPE 2.3, PBLUC_R_SQUARED 0.604, read-out: LUCIFERASE INFECTION ASSAY - IC50) stood at 2.14 µM.

Consider `CCCn1c(NC(=O)c2oc3ccccc3c2COCC)nc2ccccc21`, for which the IC90 was more than 10 µM. Besides, the IC50 (PBLUC_HILL_SLOPE 8.76, PBLUC_R_SQUARED 0.513, read-out: LUCIFERASE INFECTION ASSAY - IC50) worked out at 8.84 µM.

Consider `Cc1cc(/C=C(\C#N)c2nc3ccccc3s2)c(C)n1-c1ccc(F)cc1`, for which the IC90 is more than 10 µM. Besides, under setting [1], the IC50 was more than 10 µM.

With `Cn1c(S)nnc1-c1ccc(C(C)(C)C)cc1`, the IC90 was more than 13.3 µM. For the same molecule, the IC50 under setting [1] is more than 13.3 µM.

`CCCn1nc(C(=O)Nc2ccccc2N2CCc3ccccc3C2)ccc1=O`: the IC90 was more than 10 µM. Under “HEPG2TOX_HILL_SLOPE 0.246, HEPG2TOX_R_SQUARED 0.177, PBLUC_HILL_SLOPE 1.82, PBLUC_R_SQUARED 0.418, read-out: LUCIFERASE INFECTION ASSAY - IC50”, the IC50 was 4.28 µM.

With `CSc1sc(C(=O)Sc2ccccc2)cc1S(=O)(=O)C(C)C`, the IC90 was more than 8.86 µM. Also, the IC50 under setting [1] is more than 8.86 µM.

In the case of `COCCN(Cc1nc(=O)c2ccccc2[nH]1)C(=O)C1=NN(c2ccccc2)C(c2ccccc2)C1` (stereo unspecified), the IC90 was more than 10 µM. Besides, under setting [1], the IC50 was more than 10 µM.

Turning to `CCOc1cc(C(=O)Oc2cccc(Cl)c2Cl)cc(OCC)c1OCC`, the IC90 is more than 10 µM. The IC50 (FFLUC_HILL_SLOPE 1.16, FFLUC_R_SQUARED 0.617, read-out: LUCIFERASE INFECTION ASSAY - IC50) was more than 10 µM.

`CCN(c1ccc(NC(=S)Nc2cccc3ccccc23)cc1)C(C)C`: the IC90 was more than 10 µM. For the same molecule, the IC50 (HEPG2TOX_HILL_SLOPE 1.56, HEPG2TOX_R_SQUARED 0.289, PBLUC_HILL_SLOPE 3.28, PBLUC_R_SQUARED 0.342, read-out: LUCIFERASE INFECTION ASSAY - IC50) amounted to 5.97 µM.

`O=C1Nc2ccccc2/C1=C/c1ccc(C(F)(F)F)cc1Cl`: the IC90 is more than 10.2 µM. Further, the IC50 under setting [1] is more than 10.2 µM.

As for `N#CCCNS(=O)(=O)c1cccc(C(=O)Nc2ccc(Nc3ccccc3)cc2)c1`, the IC90 is 4.83 µM. The IC50 (HEPG2TOX_HILL_SLOPE 1.27, HEPG2TOX_R_SQUARED 0.641, PBLUC_HILL_SLOPE 2.13, PBLUC_R_SQUARED 0.388, read-out: LUCIFERASE INFECTION ASSAY - IC50) came out at 1.72 µM.

For the molecule `CCOc1ccccc1/C=N/n1c(-c2ccc(CC)cc2)cs/c1=N\c1cccc(OC)c1`, the IC90 was found to be 3.81 µM. For the same molecule, for the setting “PBLUC_HILL_SLOPE 10.6, PBLUC_R_SQUARED 0.562, read-out: LUCIFERASE INFECTION ASSAY - IC50”, the IC50 stood at 3.1 µM.

As for `CC1CC(NC(=O)c2cc3c(=O)n4ccccc4nc3n2C)CC(C)(C)C1` (stereo unspecified), the IC90 was determined as 2.74 µM. For the setting “PBLUC_HILL_SLOPE 172, PBLUC_R_SQUARED 0.0501, read-out: LUCIFERASE INFECTION ASSAY - IC50”, the IC50 turned out to be 2.7 µM.

For the molecule `CN(C)c1ccc(-c2cnc3cnc(-c4ccc(N)nc4)cn23)cc1`, the IC90 amounted to 8.82 µM. The IC50 (HEPG2TOX_HILL_SLOPE 7.95, HEPG2TOX_R_SQUARED 0.49, PBLUC_HILL_SLOPE 26.9, PBLUC_R_SQUARED 0.584, read-out: LUCIFERASE INFECTION ASSAY - IC50) was determined as 8.12 µM.

Regarding `CC(=O)NC(C)c1ccc(C2=NNC(=Nc3cccc(Cl)c3C)SC2)cc1` (stereo unspecified), the IC90 is more than 10 µM. Also, the IC50 under setting [1] was more than 10 µM.

As for `CC(=O)c1sc(SCCS(=O)(=O)c2ccc(Cl)cc2)c2c1CCCC2=O`, the IC90 was more than 7.69 µM. In addition, the IC50 (HEPG2TOX_HILL_SLOPE 4.99, HEPG2TOX_R_SQUARED 0.387, PBLUC_HILL_SLOPE 14.8, PBLUC_R_SQUARED 0.11, read-out: LUCIFERASE INFECTION ASSAY - IC50) was more than 7.69 µM.

As for `NC(=O)c1cc(S(=O)(=O)N2CCCC2)ccc1OCc1nc2ccccc2s1`, the IC90 is more than 10 µM. Besides, where the note is “HEPG2TOX_HILL_SLOPE 0.311, HEPG2TOX_R_SQUARED 0.0458, PBLUC_HILL_SLOPE 3.01, PBLUC_R_SQUARED 0.0562, read-out: LUCIFERASE INFECTION ASSAY - IC50”, the IC50 is 7.99 µM.
